A short description of the data set: Prostate case study: DCE CT tissue concentration-time curve fitted to 2-, 3- and 4-compartment mamillary distributed-parameter models. Type of data set: in vivo, patient. Particulars: value (percent CV); for t1: vascular transit time. From the text: It is instructive to apply the present mamillary model to a tumor study case to further illustrate some physiological aspects of the model, and also for comparison with another model. Ca(t) was sampled at the iliac arteries simultaneously in the same CT scan as the prostate tissue concentration-time curve, Ctiss(t). The contrast medium used was the x-ray dye lopamidol and the region of interest for Ctiss was drawn over the prostate gland. Example imaging and patient protocols that were used are, for example, expounded upon in T. S. Koh, V. Zeman, J. Darko, T. Lee, M. F. Milosevic, M. Haider, P. Warde, and I. W. T. Yeung, “The inclusion of capillary distribution in the adiabatic tissue homogeneity model of blood flow”, Phys. Med. Biol., vol. 46, pp. 1519-1538, 2001.
The ‘goodness-of-fit’ between model and data can be given by the χ^2 statistic as detailed in equation (11).
A 2-compartment distributed-parameter model has 4 adjustable parameters (i.e F, t1, k12 and k21), and each additional compartment introduces two additional parameters given by the rate constants.
The tissue concentration-time curve Ctiss(t) was sampled at a region of interest over the prostate tumor. […] A test statistic to compare the goodness-of-fit of a more complex model (χ^2c) with that of a less complex (reduced) model (χ^2r) can be given by equation (12), namely [formula] which follows the F-distribution. The degrees of freedom dfr and dfc are those associated with the reduced and complex models, respectively. […] Correspondingly, large values of F* would justify the more complex model.
The fitted Ctiss(t) curves using 2-, 3- and 4-compartment distributed-parameter models are shown in FIG. 5 and their corresponding impulse residue functions are shown in FIG. 6. The values for the parameters adjusted in the model fittings together with their error estimates (as percent CVi) are listed in Table 1.

The mark [1] stands for this setting: 2-compartment model, rate constant for tracer transfer.
Where [2] appears, read: 3-compartment model, rate constant for tracer transfer.
The mark [3] stands for this setting: 4-compartment model, rate constant for tracer transfer.

Take `C[C@H](O)C(=O)Nc1c(I)c(C(=O)NC(CO)CO)c(I)c(C(=O)NC(CO)CO)c1I` [lopamidol]: under setting [1], the K12 is 0.744 (4) min^−1 and the K21 is given as 2.183 (4) min^−1. Where the note is “2-compartment model”, the t1 is 0.717 (3) min. Also, under setting [2], the K12 is 1.581 (17) min^−1, the K13 is recorded as 0.259 (28) min^−1, the K21 was 1.854 (15) min^−1 and the K31 is reported as 0.818 (25) min^−1. Also, the t1 (3-compartment model) is reported as 0.688 (9) min. For the same compound, under setting [3], the K12 is given as 1.579 (20) min^−1, the K13 is 0.264 (36) min^−1, the K14 was 0.000 (53) min^−1 and the K21 is on record as 1.853 (17) min^−1. Also, under setting [3], the K31 is on record as 0.816 (32) min^−1 and the K41 is on record as 0.000 (44) min^−1. In addition, the t1 (4-compartment model) is reported as 0.688 (11) min.
